Test results from EP0518675A2, “Cyclic renin inhibitors” (MERCK & CO. INC., priority 1991, dated 1992).
Square brackets hold non-standard residues; d marks the D form. Peptide text beside a SMILES is read from it. * marks the point of attachment. Sta = CC(C)C[C@H](N)[C@@H](O)CC(=O)O; Isovaleryl = CC(C)CC(=O)*

How the values were obtained:
[1] = tested on: human plasma renin; test: human plasma renin IC50 determination at pH 7.4; type: biochemical; settings: against human plasma renin
Description: The following method was used for in vitro evaluation of the renin inhibitors of Formula I: The human plasma renin IC50 values for inhibitors of Formula I were determined at pH 7.4 following the procedure described in J. Boger, L.S. Payne, D.S. Perlow, N.S. Lohr, M. Poe, E.H. Blaine, E. H. Elm, T.W. Schorn, B.I. Lamont, T.-Y. Lin, M. Kawai, D.H. Rich and D.F. Veber, J. Med. Chem., 28, 1779 (1985).

[2] = tested on: conscious sodium-deficient Rhesus monkeys; test: intravenous evaluation of renin inhibitors in conscious sodium-deficient Rhesus monkeys (blood pressure lowering); type: in vivo; settings: i.v. bolus injection, mean arterial pressure
Source text: The following methods were used for in vivo evaluation of the renin inhibitors of Formua I: Intravenous evaluation of renin inhibitors in conscious sodium-deficient Rhesus monkeys: Rhesus monkeys, male and female, weighing 2.6 - 4.5 Kg, were surgically prepared with chronic arterial and venous catheters and vascular access ports for direct monitoring of mean arterial pressure (MAPI) and heart rate (HR). The animals were maintained on a low sodium diet (1.2 mmol Na/day) plus fruit for a week, and administered LASIX (furosemide) at2.5 mg/Kg, intramuscularly the evening prior to the experiment. The animals had been trained to sit quietly in the chairs with water AD LIBIUM for the duration of the experiment. The inhibitors were administered by bolus injection using 0.5% acetic acid-5% dextrose in water as the vehicle (0.4 ml/Kg), and MAP and HRwere measured. Blood samples were withdrawn at different time intervals beginning at the nadir of hypotensive response. PRA was determined as described above. […] A projected ED50 dose for each inhibitor was calculated using the following formula: ED50 (Test Inhibitor, umoles/Kg) = ED50 (SCRIP) X [IC50 (Test Inhibitor)/IC50 (SCRIP)], where the IC50 values were determined against human plasma renin. […] Percent inhibition of monkey PRA, changes in MAP and HR were calculated and plotted against time. […]

CC(C)CC(=O)N[C@@H](Cc1c[nH]cn1)C(=O)N1CCC[C@H]1C(=O)N[C@@H](Cc1ccccc1)C(=O)N[C@@H](Cc1c[nH]cn1)C(=O)N[C@@H](CC(C)C)[C@@H](O)CC(=O)N[C@@H](CC(C)C)C(=O)N[C@@H](Cc1ccccc1)C(N)=O [SCRIP, Iva-His-Pro-Phe-His-Sta-Leu-Phe-NH2] (Isovaleryl-HPFH[Sta]LF-NH2)
IC50 [1]: 3.7 nM | i.v. dose of the standard inhibitor required to lower blood pressure by 50% of the maximal response (ED50) [2]: 0.039 µmol/kg
